Test results published in PMC11740144 (ACS Omega, 2024).

Assays:
[1] = system: SARS-CoV-2 delta virus (NTU92); assay: Plaque reduction assay, entry treatment (compound preincubated with the virus); type: cell-based; settings: Severe acute respiratory syndrome coronavirus 2, Vero C1008, VeroE6 cells, triplicate, read-out: EC50 against delta SARS-CoV-2 infecting VeroE6 cells
[2] = Cytotoxicity by acid phosphatase assay; type: cell-based; settings: African green monkey; VeroE6 cells, 3 days incubation
Procedure: Cytotoxicity of the inhibitors was determined by using acid phosphatase assay. Briefly, VeroE6 cells were seeded onto a 96-well culture plate at a concentration of 2 × 10^4 cells per well. Next day, the medium was removed, and each well was washed once with PBS before adding DMEM containing 2% FBS and different concentrations of an inhibitor. Next, DMEM containing 2 μg/mL TPCK-trypsin was added. After 1 h of incubation at 37 °C, the medium was removed, and cells were washed by PBS. Then, DMEM containing 2% FBS and different concentrations of an antiviral was added. After 3 days of incubation at 37 °C, the medium was removed, and each well was washed once with PBS. Next, buffer containing 0.1 M sodium acetate (pH = 5.0), 0.1% Triton X-100, and 5 mM p-nitrophenyl phosphate was added. After the mixture was incubated at 37 °C for 2 h, 1 N NaOH was added to stop the reaction. The absorbance was then determined by an ELISA reader (VERSAmax, Molecular Devices, Sunnyvale, CA) at a wavelength of 405 nm. The percentage of cytotoxicity was calculated using the following formula: cytotoxicity % = [1 – (At/As) × 100]%, where At and As refer to the absorbance of a tested substance and solvent control, respectively. The 50% cytotoxicity concentration (CC50) was defined as the concentration reducing 50% of cell viability. […]

RBD:ACE2 interaction = RBD:ACE2 interaction (Severe acute respiratory syndrome coronavirus 2, UniProt P0DTC2); assay: RBD:ACE2 interaction inhibition, NanoBiT kit (Promega); set-up: species or system delta SARS-CoV-2 RBD / human ACE2; settings: RBD from delta SARS-CoV-2, triplicate; read-out: IC50 of RBD:ACE2 binding inhibition
Furin = Furin (Homo sapiens, UniProt P09958); assay: Inhibition of human protease Furin (data not shown); type: biochemical
TMPRSS2 = TMPRSS2 (Homo sapiens, UniProt O15393); assay: Inhibition of human protease TMPRSS2 (data not shown); type: biochemical
Cathepsin L = Cathepsin L (Homo sapiens, UniProt P07711); assay: Inhibition of human protease Cathepsin L (data not shown); type: biochemical
SARS-CoV-2 [3] = type: cell-based
SARS-CoV-2 [4] = settings: VeroE6 host cells; read-out: EC50 of inhibiting SARS-CoV-2 entry into VeroE6 host cells; cited from earlier work
VeroE6 host cells = settings: cited from earlier work

TMPRSS2, sequence (O15393 whole entry): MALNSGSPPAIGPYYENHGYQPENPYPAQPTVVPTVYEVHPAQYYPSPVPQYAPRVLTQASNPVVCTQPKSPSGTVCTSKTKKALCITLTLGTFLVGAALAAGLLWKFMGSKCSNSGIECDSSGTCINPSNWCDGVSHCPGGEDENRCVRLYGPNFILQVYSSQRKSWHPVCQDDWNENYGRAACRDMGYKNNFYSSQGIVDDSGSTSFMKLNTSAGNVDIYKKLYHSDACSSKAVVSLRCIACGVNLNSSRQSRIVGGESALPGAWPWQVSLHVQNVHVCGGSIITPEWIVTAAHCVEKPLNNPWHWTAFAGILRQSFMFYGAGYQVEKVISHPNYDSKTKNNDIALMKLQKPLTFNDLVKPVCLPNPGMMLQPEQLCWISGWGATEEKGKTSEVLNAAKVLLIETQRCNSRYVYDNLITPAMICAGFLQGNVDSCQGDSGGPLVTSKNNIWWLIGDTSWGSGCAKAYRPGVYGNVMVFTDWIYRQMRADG
Furin, sequence (P09958 108-794): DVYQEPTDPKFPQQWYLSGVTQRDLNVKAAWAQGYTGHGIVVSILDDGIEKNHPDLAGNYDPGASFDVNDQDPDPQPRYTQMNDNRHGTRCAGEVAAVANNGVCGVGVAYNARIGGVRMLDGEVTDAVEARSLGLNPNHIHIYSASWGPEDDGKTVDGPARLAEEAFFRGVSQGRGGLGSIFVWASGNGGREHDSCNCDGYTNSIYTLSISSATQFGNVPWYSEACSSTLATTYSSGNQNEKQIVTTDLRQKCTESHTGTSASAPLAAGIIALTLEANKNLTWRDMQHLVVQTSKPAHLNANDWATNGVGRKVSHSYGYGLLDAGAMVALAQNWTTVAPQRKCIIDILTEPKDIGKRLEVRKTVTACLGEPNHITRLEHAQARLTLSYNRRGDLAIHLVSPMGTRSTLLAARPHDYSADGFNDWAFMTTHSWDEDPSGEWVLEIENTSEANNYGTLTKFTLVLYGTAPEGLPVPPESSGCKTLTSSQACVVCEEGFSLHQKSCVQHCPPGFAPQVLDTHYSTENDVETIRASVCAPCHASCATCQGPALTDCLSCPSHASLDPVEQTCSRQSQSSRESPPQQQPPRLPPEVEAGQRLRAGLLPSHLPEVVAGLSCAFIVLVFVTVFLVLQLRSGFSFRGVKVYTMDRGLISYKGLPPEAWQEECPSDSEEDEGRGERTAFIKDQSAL
Cathepsin L, sequence (P07711 114-333): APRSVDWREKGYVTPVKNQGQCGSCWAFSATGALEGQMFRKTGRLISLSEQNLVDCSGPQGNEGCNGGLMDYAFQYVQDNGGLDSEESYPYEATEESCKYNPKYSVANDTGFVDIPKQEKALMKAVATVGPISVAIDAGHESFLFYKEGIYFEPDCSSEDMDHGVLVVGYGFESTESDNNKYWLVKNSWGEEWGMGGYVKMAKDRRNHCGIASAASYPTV

Molecule | EC50 [1] [µM] | CC50 at 3 days [2] [µM] | IC50 (RBD:ACE2 interaction) [µM] | inhibition of Furin (Furin) | inhibition of TMPRSS2 (TMPRSS2) | inhibition of Cathepsin L (Cathepsin L) | anti-SARS-CoV-2 activity under the postentry treatment (SARS-CoV-2 [3]) | EC50 (SARS-CoV-2 [4]) [µM] | CC50 (VeroE6 host cells) [µM]
O=C(c1ccccc1)[C@H]1[C@@H]2c3ccccc3C=CN2[C@@H](C(=O)c2ccccc2)[C@@H]2c3ccccc3C=CN12 [Compound 50] | 26.5 ± 6.9 | > 100 | 32.7 ± 8.9 | no inhibition | no inhibition | no inhibition | not under the postentry treatment | – | –
O=C(c1ccc(Cl)cc1)[C@H]1[C@@H]2c3ccccc3C=CN2[C@@H](C(=O)c2ccc(Cl)cc2)[C@@H]2c3ccccc3C=CN12 [Compound 96] | 17 ± 3.7 | > 100 | 10.4 ± 2.1 | no inhibition | no inhibition | no inhibition | not under the postentry treatment | – | –
berbamine hydrochloride | – | – | – | – | – | – | – | 1.73 | 66.9
